SMILES strings stand for the structures. Counter-ions that a name gives are not always drawn.

One test has as its target T1, G1 APOL1 (Homo sapiens, UniProt O14791, I384M/S342G).
T1 construct: expressed in transfected cells
T1 sequence (O14791 28-398 S342G/I384M): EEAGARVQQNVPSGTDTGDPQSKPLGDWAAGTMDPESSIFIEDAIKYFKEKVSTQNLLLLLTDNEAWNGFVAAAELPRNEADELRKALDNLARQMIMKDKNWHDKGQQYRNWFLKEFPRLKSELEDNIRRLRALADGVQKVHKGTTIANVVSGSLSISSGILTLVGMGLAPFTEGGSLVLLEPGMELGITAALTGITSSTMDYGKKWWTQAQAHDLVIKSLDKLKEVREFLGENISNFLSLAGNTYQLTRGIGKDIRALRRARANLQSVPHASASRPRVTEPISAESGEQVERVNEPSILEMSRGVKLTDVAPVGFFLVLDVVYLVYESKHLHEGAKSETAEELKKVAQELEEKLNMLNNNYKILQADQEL
As to the kind of experiment: Acute APOL1 Thallium Assay with Inducible Stable Clones of HEK 293 Cells. Type of test: cell-based. To be noted: HEK 293 inducible stable clones, G1 APOL1; read-out: Thallium Assay (IC50). The method in brief:
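Pore activity was read as the fluorescence increase from Tl+ entering cells loaded with an AM-ester thallium indicator dye. The cells were tetracycline-inducible HEK293 T-Rex expressing G1 APOL1 (clone DC3.25), induced when plated at 26000 per well and incubated at 37° C.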

A further test concerns the target T2, APOL1 G1 Protein (Homo sapiens, UniProt O14791, I384M/S342G).
T2 sequence (O14791 28-398 S342G/I384M): T1 sequence (O14791 28-398 S342G/I384M)
As to the kind of experiment: Trypanosoma brucei brucei Lysis Assay Using APOL1 Recombinant Protein (AlamarBlue viability). Type of test: cell-based. The following applies: read-out: Trypanosomal Assay (IC50). The source says: Trypanosoma brucei brucei is a blood stream parasite to which human, gorillas and baboon are immune due to the presence of the APOL1 protein in their HDL particles. The protein is uptaken by the parasite via the TbHpHb receptor located in its flagellar pocket and is bonded by the Hpr protein contained in the HDL particles which triggers the receptor endocytosis by the parasite.
Following endocytosis, the formed vesicle containing the HDL particle matures from early to late endosome, and subsequently to lysosome. The concomitant pH change in the lumen of the vesicle triggers the insertion of the APOL1 protein into the membrane of the late endosome/lysosome and hereby triggers lysosomal membrane permeabilization and as a further downstream event, trypanosome lysis. Trypanosoma brucei brucei is sensitive to lysis by all three APOL1 variants (G0, G1, and G2).
The Trypanosoma brucei brucei lysis assay is a lysis assay of the parasite using recombinant APOL1 protein variant followed by a fluorescent detection method of viability by the addition of AlamarBlue reagent to the assay well, a general metabolic redox indicator (AlamarBlue assay).
Briefly, the AlamarBlue active compound, the resazurin, a blue, water soluble, non-toxic and cell permeable molecule, which can be followed by absorbance, is reduced by various metabolic pathways into resorufin, a red compound which can be followed by either absorbance or fluorescence. The assay allows the calculation of the percent viability (percent of living Trypanosomes remaining in each well) at the end of a lysis relative to the untreated condition by interpolation of fluorescent values (FLU) on a standard curve with a known amount of seeded trypanosome/well.
Trypanosoma brucei brucei (ATCC, Cat. No. PRA-382) • Lister 427 VSG 221 bloodstream form.
Thaw/Expansion Media (ATCC Medium 2834 Modified HMI-9 Medium)
Assay Media (No Phenol Red/No FBS): Make on Day of Use
Hypoxanthine Stock (100×)-9 (10×)
Equipment • E1-Clip Tip pipette 12 channel adjustable 2-125 μL, Cat. No. 4672070BT • ThermoFisher MultiDrop 384, Cat. No. 5840300 • Multidrop • Agilent Bravo, Cat. No. G5409A • Bravo • SpectraMax M5
Trypanosoma brucei brucei Culture
Step 2, Day 4 • Centrifuge at 800×g for 5 minutes at room temperature. • Resuspend in 1 mL media. • Make a 1:25 fold dilution (10 μL/240 μL media). • Count on a hemocytometer (after adding parasites). • Let sit for 1-2 minutes for the parasites to settle. • Count should be approximately 100 viable motile parasites/16 grid or approximately 25×10^6 parasites/flask. • Passage the parasites by adding 1×10^6 parasites/T75 flask in 20 mL media. • Passage the parasites by adding 2.33×10^6 parasites/T175 flask in 46.6 mL media. • For every T75 flask should make enough for approximately 1.5×384 well assay plates. • For every T175 flask should make enough for approximately 3.8×384 well assay plates.
Step 3, Day 6 • Centrifuge at 800×g for 5 minutes. • Resuspend in 3 mL assay media (No phenol red, no FBS) per 75 starting flask. • Resuspend in 7 mL assay media (No phenol red, no FBS) per 175 flask • Make a 1:25 fold dilution. • Count by hemocytometer. • Every T75 flask set up should have approximately 75×10^6 parasites/flask (verify doubling time=8.7 hours±1 hour). • Every T175 flask set up should have approximately 175×10^6 parasites/flask (verify doubling time=8.7 hours±1 hour). • Require 46×10^6 parasites per 384 well plate (at 120,000 parasites per well). […]

With `CC(O)C(C)NC(=O)CCc1c(-c2ccc(F)cc2)[nH]c2ccc(F)cc12` (mixture of isomers) [Compound 35], the IC50 at G1 APOL1 and on APOL1 G1 Protein was greater than 1000 nM throughout.

Take `CC1CC(NC(=O)CCc2c(-c3ccc(F)cc3)[nH]c3c(F)cc(F)cc23)C(=O)O1` (mixture of isomers) [Compound 189]: the IC50 at G1 APOL1 and on APOL1 G1 Protein was greater than 1000 nM each time.

`CC(CN)NC(=O)CCc1c(-c2ccc(F)cc2)[nH]c2ccc(F)cc12` (racemic) [Compound 5]: the IC50 on G1 APOL1 and on APOL1 G1 Protein was greater than 1000 nM each time.

Regarding `CC(CO)NC(=O)CCc1c(-c2ccc(F)cc2)[nH]c2ccc(F)cc12` (racemic) [Compound 9], the IC50 at G1 APOL1 and at APOL1 G1 Protein was less than 250 nM throughout.

Regarding `CNC(=O)C(C)NC(=O)CCc1c(-c2ccc(F)cc2)[nH]c2ccc(F)cc12` (racemic) [Compound 11], the IC50 at G1 APOL1 and on APOL1 G1 Protein was 250 to 1000 nM throughout.

Regarding `CCNC(=O)C(C)NC(=O)CCc1c(-c2ccc(F)cc2)[nH]c2ccc(F)cc12` (racemic) [Compound 12], the concentration for half-maximal inhibition (IC50) at G1 APOL1 and at APOL1 G1 Protein was 250 to 1000 nM in each case.

Consider `CC(NC(=O)CCc1c(-c2ccc(F)cc2)[nH]c2ccc(F)cc12)C(N)=O` (racemic) [Compound 13], for which the IC50 on G1 APOL1 is 250 to 1000 nM; at APOL1 G1 Protein, greater than 1000 nM.

On to `COCC(C)NC(=O)CCc1c(-c2ccc(F)cc2)[nH]c2ccc(F)cc12` (racemic) [Compound 30], for which the IC50 at G1 APOL1 and at APOL1 G1 Protein was 250 to 1000 nM each time.

For the compound `CC(C#N)(CO)NC(=O)CCc1c(-c2ccc(F)cc2)[nH]c2ccc(F)cc12` (racemic) [Compound 33], the IC50 on G1 APOL1 and on APOL1 G1 Protein was greater than 1000 nM in each case.

For the compound `CC(CNC(=O)OC(C)(C)C)NC(=O)CCc1c(-c2ccc(F)cc2)[nH]c2ccc(F)cc12` (racemic) [Compound 59], the IC50 on G1 APOL1 and at APOL1 G1 Protein was greater than 1000 nM each time.

As to `CCC(C)(CO)NC(=O)CCc1c(-c2ccc(F)cc2)[nH]c2ccc(F)cc12` (racemic) [Compound 62], the IC50 on G1 APOL1 and on APOL1 G1 Protein was greater than 1000 nM in each case.

Take `CC1(N)CCN(C(=O)CCc2c(-c3ccc(F)cc3)[nH]c3ccc(F)cc23)C1` (racemic) [Compound 67]: the IC50 on G1 APOL1 and at APOL1 G1 Protein was greater than 1000 nM in each case.

For the compound `CC1(O)CCN(C(=O)CCc2c(-c3ccc(F)cc3)[nH]c3ccc(F)cc23)C1` (racemic) [Compound 88], the IC50 at G1 APOL1 and at APOL1 G1 Protein was greater than 1000 nM throughout.

On to `CNC(=O)C(C)NC(=O)CCc1c(-c2ccc(F)cc2)[nH]c2c(F)cc(F)cc12` (racemic) [Compound 100], for which the IC50 at G1 APOL1 and at APOL1 G1 Protein was 250 to 1000 nM throughout.

Take `CC1(NC(=O)CCc2c(-c3ccc(F)cc3)[nH]c3c(F)cc(F)cc23)CCOC1=O` (racemic) [Compound 105]: the IC50 at G1 APOL1 was greater than 1000 nM; at APOL1 G1 Protein, 250 to 1000 nM.

In the case of `CC(NC(=O)CCc1c(-c2ccc(F)cc2)[nH]c2c(F)cc(F)cc12)C(F)(F)F` (racemic) [Compound 115], the IC50 at G1 APOL1 and at APOL1 G1 Protein was 250 to 1000 nM in each case.

Regarding `CC(NC(=O)CCc1c(-c2ccc(F)cc2)[nH]c2c(F)cc(F)cc12)c1ccn(C)n1` (racemic) [Compound 133], the IC50 on G1 APOL1 was 250 to 1000 nM; on APOL1 G1 Protein it was greater than 1000 nM.

As for `CC1(NC(=O)CCc2c(-c3ccc(F)cc3)[nH]c3c(F)cc(F)cc23)CCOC1` (racemic) [Compound 152], the IC50 at G1 APOL1 and on APOL1 G1 Protein was greater than 1000 nM in each case.

On to `CC(O)C(=O)NCCCc1c(-c2ccc(F)cc2)[nH]c2ccc(F)cc12` (racemic) [Compound 507], for which the IC50 on G1 APOL1 was less than 250 nM; on APOL1 G1 Protein it was 250 to 1000 nM.

On to `O=C(CCc1c(-c2ccc(F)cc2)[nH]c2ccc(F)cc12)N[C@@H](CO)C(F)(F)F` [Compound 1, 3-[5-fluoro-2-(4-fluorophenyl)-1H-indol-3-yl]-N-[(1S)-2,2,2-trifluoro-1-(hydroxymethyl)ethyl]propanamide], for which the IC50 on G1 APOL1 and at APOL1 G1 Protein was less than 250 nM throughout.

With `O=C(CCc1c(-c2ccc(F)cc2)[nH]c2ccc(F)cc12)N[C@H]1CNC[C@@H]1O` [Compound 2, 3-[5-fluoro-2-(4-fluorophenyl)-1H-indol-3-yl]-N-[(3S,4S)-4-hydroxypyrrolidin-3-yl]propanamide hydrochloride], the IC50 at G1 APOL1 and on APOL1 G1 Protein was greater than 1000 nM each time.

Consider `O=C(CCc1c(-c2ccc(F)cc2)[nH]c2ccc(F)cc12)NC1(CO)CCC1` [Compound 4], for which the IC50 on G1 APOL1 and at APOL1 G1 Protein was less than 250 nM throughout.

`Nc1ccnn1C(=O)CCc1c(-c2ccc(F)cc2)[nH]c2ccc(F)cc12` [Compound 6]: the IC50 at G1 APOL1 and on APOL1 G1 Protein was 250 to 1000 nM each time.

Turning to `NC1CCC(NC(=O)CCc2c(-c3ccc(F)cc3)[nH]c3ccc(F)cc23)C1` (stereo not shown) [Compound 7], the IC50 at G1 APOL1 and on APOL1 G1 Protein was greater than 1000 nM in each case.

For `C[C@H](CO)NC(=O)CCc1c(-c2ccc(F)cc2)[nH]c2ccc(F)cc12` [Compound 8], the concentration for half-maximal inhibition (IC50) on G1 APOL1 and on APOL1 G1 Protein was less than 250 nM throughout.

For the compound `N[C@H]1C[C@@H](NC(=O)CCc2c(-c3ccc(F)cc3)[nH]c3ccc(F)cc23)C1` [Compound 10], the IC50 at G1 APOL1 and on APOL1 G1 Protein was greater than 1000 nM each time.

Take `O=C(CCc1c(-c2ccc(F)cc2)[nH]c2ccc(F)cc12)N[C@H]1CC[C@H]1O` [Compound 14]: the IC50 on G1 APOL1 and at APOL1 G1 Protein was 250 to 1000 nM throughout.

With `O=C(CCc1c(-c2ccc(F)cc2)[nH]c2ccc(F)cc12)N[C@@H]1CCC[C@@H]1O` [Compound 15], the IC50 on G1 APOL1 and on APOL1 G1 Protein was 250 to 1000 nM each time.

As for `CC1(NC(=O)CCc2c(-c3ccc(F)cc3)[nH]c3ccc(F)cc23)COC1` [Compound 16], the IC50 at G1 APOL1 was greater than 1000 nM; at APOL1 G1 Protein it was 250 to 1000 nM.

Turning to `CC(C)(NC(=O)CCc1c(-c2ccc(F)cc2)[nH]c2ccc(F)cc12)C(N)=O` [Compound 17], the IC50 at G1 APOL1 and at APOL1 G1 Protein was 250 to 1000 nM throughout.

As for `CC(CO)(CO)NC(=O)CCc1c(-c2ccc(F)cc2)[nH]c2ccc(F)cc12` [Compound 18], the IC50 on G1 APOL1 and on APOL1 G1 Protein was 250 to 1000 nM throughout.

Take `CC(C)(CO)NC(=O)CCc1c(-c2ccc(F)cc2)[nH]c2ccc(F)cc12` [Compound 19]: the IC50 on G1 APOL1 and at APOL1 G1 Protein was 250 to 1000 nM throughout.

With `NC(=O)C1(NC(=O)CCc2c(-c3ccc(F)cc3)[nH]c3ccc(F)cc23)CC1` [Compound 20], the IC50 at G1 APOL1 and at APOL1 G1 Protein was greater than 1000 nM throughout.

On to `O=C(CCc1c(-c2ccc(F)cc2)[nH]c2ccc(F)cc12)NC(CO)C1CC1` (stereo not shown) [Compound 21], for which the IC50 on G1 APOL1 and at APOL1 G1 Protein was 250 to 1000 nM each time.

Regarding `O=C(CCc1c(-c2ccc(F)cc2)[nH]c2c(F)cc(F)cc12)N[C@H](CO)C(F)(F)F` [Compound 128], the IC50 at APOL1 G1 Protein lay in the range of 250 to 1000 nM.

Consider `CON(C)C(=O)CCc1c(-c2ccc(F)cc2)[nH]c2ccccc12` [Compound 237], for which the IC50 on APOL1 G1 Protein is greater than 1000 nM.

These data come from patent US20230014907A1, “INHIBITORS OF APOL1 AND METHODS OF USING SAME” (Vertex Pharmaceuticals Incorporated, priority 2020, published 2023).
